Reference: publication PMC3331894 (Journal of Immunology (Baltimore, Md. : 1950), 2012)

Columns and labels:
CD4 T cells [1] = conditions: immunodominant or cryptic epitope presented by I-A^d; cited from earlier work
[2] = target: purified soluble DR1 molecules (Homo sapiens, UniProt P01903+P01911, A100R/D57E/F55L/F60I/F76Y/I96L/L162R/M171V/P40L/Q125E/R42F/V115G/Y59C); type: binding
CD4 T cells [3] = type: cell-based, HLA-DR1 transgenic mice; conditions: average of at least 3 independent assays

Row | Sequence | Immune Response (CD4 T cells [1]) | dissociation half-time (t1/2) of DR1:peptide complexes [2] [days] | t1/2 (h) pH 5.3, dissociation of DR1:peptide complexes [2] [h] | Cytokine Spots (number of CD4 T cell recruited per million) (CD4 T cells [3])
1 | AMKRHGLDNYRGYSL [HEL[11–25]] | Cryptic | – | – | –
2 | ELLVLLENERTLDFHD [HA-440] | – | 14.6 | 350 | 146 spots per million CD4 T cells
3 | HNTNGVTAACSHE [HA[126–138]] | Cryptic | – | – | –
4 | HNVNGVTAACSHE [HA[126–138]T128V] | Dominant | – | – | –
5 | KRNLLWLTGKNGL [HA-162] | – | 3.54 | 85 | 163 spots per million CD4 T cells
6 | MEERKIKVYLPRMKME [OVA[273–288]] | Dominant | – | – | –
7 | SGYAADQKSTQNAINGI [HA-375] | – | 25 | 600 | –
